Measurements: US9453023B2, “Substituted phenyl cycloalkyl pyrrolidine (piperidine) spirolactams and amides, preparation and therapeutic use thereof” (SANOFI, priority 2010, dated 2016)
Where a name gives a salt, the structure may show the parent alone.

target: rhesus (Macacca Mulatta) H3 receptor (Macaca mulatta, UniProt Q865E1); assay: Rhesus H3 radioligand binding assay ([3H]-Methylhistamine, WGA SPA); design: species or system rhesus monkey (Macacca Mulatta); details: displacement of [3H]-Methylhistamine (2 nM) from rhesus H3 receptor membranes; Cheng-Prusoff
Protocol: (Genbank #AY231164). Stably transfected cultures were amplified in tissue culture flasks by standard tissue culture methods and induced to express rhesus H3 by exposure to 500 ng/ml tetracycline (Cellgro) for 24 hours. After induction, cells were dissociated from flasks utilizing Cell Stripper (Cellgro). Cells were centrifuged (1K×g, 5 min) and pellet frozen in an ethanol-dry ice bath to disrupt cell membranes. Frozen cell pellet was re-suspended in 5 mM HEPES (pH 7.4, Invitrogen) at 10 ml/1000 cm2 of harvested cells. The cell suspension was drawn through an 18 gauge needle (2-3×) followed by a 23 gauge needle (2-3×) to further disrupt cell membranes. The cell suspension was centrifuged (40K×g, 30 min). Cell membrane pellet was re-suspended in 5 mM HEPES (pH 7.4, Invitrogen) at a final protein concentration of 10 mg/ml. Rhesus H3 membranes were stored under liquid nitrogen prior to use in [3H]-Methylhistamine and GTPγS radioligand binding assays.
Rhesus H3 radioligand binding assay was performed using rhesus H3 receptor membranes (prepared as described above), [3H]-Methylhistamine (Perkin Elmer) and WGA SPA beads (wheat germ agglutinin scintillation proximity assay) beads (Amersham). The assay was performed in 96-well Opti-Plates (Packard). Each reaction contained 50 μl rhesus H3 membranes (20-30 μg total protein), 50 μl WGA SPA beads (0.1 μg) and 50 μl of 83 Ci/mmol [^3H]-Methylhistamine (final concentration 2 nM) and 50 μl of tested compound. The compounds of this invention and/or vehicle were diluted with binding buffer from 10 mM DMSO stocks. Assay plates were sealed with TopSeal (Perkin Elmer) and mixed on shaker (25° C., 1 hour). Assay plates were read on TopCount scintillation counter (Packard). Results were analyzed by Hill transformation and Ki values were determined by Cheng-Prusoff equation.

Chain of rhesus (Macacca Mulatta) H3 receptor (Q865E1 1-445): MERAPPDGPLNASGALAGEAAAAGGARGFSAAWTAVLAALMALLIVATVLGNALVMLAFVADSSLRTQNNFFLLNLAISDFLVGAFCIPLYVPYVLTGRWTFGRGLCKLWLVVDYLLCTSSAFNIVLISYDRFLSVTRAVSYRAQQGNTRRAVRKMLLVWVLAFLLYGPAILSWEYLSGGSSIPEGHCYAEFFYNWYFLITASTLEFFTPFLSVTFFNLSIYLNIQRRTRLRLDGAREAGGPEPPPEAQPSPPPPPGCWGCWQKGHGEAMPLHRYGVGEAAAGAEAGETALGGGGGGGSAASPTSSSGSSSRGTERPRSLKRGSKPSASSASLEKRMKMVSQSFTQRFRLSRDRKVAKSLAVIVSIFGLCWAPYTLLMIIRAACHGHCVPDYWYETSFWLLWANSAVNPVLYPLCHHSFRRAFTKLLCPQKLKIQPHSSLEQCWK

Q: With C[C@H]1CCCN1C1CC[C@H](c2ccc(NC(=O)c3cccs3)cc2)C1 (stereo partly drawn) [Example 23, Thiophene-2-carboxylic acid {4-[(S)-3-((S)-2-methyl-pyrrolidin-1-yl)-cyclopentyl]-phenyl}-amide] as the compound, how does the Ki read?
A: 0.0465 µM

Q: O=C1N(c2ccc([C@H]3CC[C@H](N4CCC4)CC3)cc2F)CCC12CCNCC2 [Example 19, 2-[4-(4-Azetidin-1-yl-cyclohexyl)-2-fluoro-phenyl]-2,8-diaza-spiro[4.5]decan-1-one hydrochloride] was tested. Which Ki did it give?
A: 0.0822 µM

Q: C[C@H]1CCCN1C1CC[C@H](c2ccc(NS(=O)(=O)c3ccc(F)cc3)cc2)C1 (stereo partly drawn) [Example 24, 4-Fluoro-N-{4-[(S)-3-((S)-2-methyl-pyrrolidin-1-yl)-cyclopentyl]-phenyl}-benzenesulfonamide] was tested. Which Ki did it give?
A: 0.0124 µM
